From ChEMBL document CHEMBL4038271, “Therapeutic potentials of baicalin and its aglycone, baicalein against inflammatory disorders” (Eur J Med Chem, 2017) come the findings set out here.

The subject of series [1] is DU-145. Kind of series: Anti-tumor activity against human DU145 cells xenografted in SCID mouse assessed as tumor volume at 10 mg/kg, po administered once daily for 28 days measured every seven days during compound dosing (reference value: 314 +/- 54.8 mm3). The class given is functional. In general terms: A xenograft is tissue or cells of one species grown in another, often human tumour cells in immunodeficient mice.

The test system of series [2] is Rattus norvegicus. The series can be described thus: In vivo inhibition of P-gp in Sprague-Dawley rat assessed as increase in nimodipine AUC at 8 mg/kg, po pretreated for 30 mins followed by nimodipine addition measured after 36 hrs by HPLC method relative to nimodipine alone. The class given is functional.
For series [3], the system named is Rattus norvegicus. The series can be described thus: In vivo inhibition of P-gp in Sprague-Dawley rat assessed as increase in cyclosporine Cmax at 112 uM/kg, po administered via gastric gavage coadministered with 2.5 mg/kg cyclosporine measured after 720 to 1440 mins by monoclonal fluorescence polarization assay relative to control. In kind it is functional. Details: scale not given: the % may be the effect or the level left. Background: In fluorescence polarisation assays a small probe gives low polarisation when free and higher when bound to something large.

Series [4] deals with Rattus norvegicus. Kind of series: In vivo inhibition of CYP3A4 in Sprague-Dawley rat assessed as increase in cyclosporine AUC at 112 uM/kg, po administered via gastric gavage coadministered with 2.5 mg/kg cyclosporine measured after 720 to 1440 mins by monoclonal fluorescence polarization assay relative to control. In kind it is ADME, organism-based. Further details: scale not given: the % may be the effect or the level left.

The nature of series [5]: (§1) Oral bioavailability in Sprague-Dawley rat at 224 umol/kg administered via gastric gavage. The conditions noted are these: Sprague-Dawley, in vivo, 224 umol/kg. In kind it is ADME, organism-based.
Series [6] in a line: Tmax in Sprague-Dawley rat at 224 umol/kg, po administered via gastric gavage. In kind it is ADME, organism-based. The conditions noted are these: in vivo.
The next series deals with Cytochrome P450 3A4 (Homo sapiens, UniProt P08684). The series can be described thus: Inhibition of human CYP3A4 expressed in baculovirus infected insect cells using 7-benzyloxy-4-trifluoromethylcoumarin as substrate measured after 45 mins in presence of NADPH by spectrofluorometric method. In kind it is ADME.
A short description of series [7]: Apparent permeability of the compound. The conditions noted are these: not told. The class given is physicochemical.
The test system of series [8] is DU-145. Kind of series: Anti-tumor activity against human DU145 cells xenografted in SCID mouse assessed as tumor volume at 20 mg/kg, po administered once daily for 28 days measured every seven days during compound dosing (reference value: 314 +/- 54.8 mm3). In kind it is functional.
The next series relates to HMC1. The series can be described thus: Cytotoxicity against HMC1 cells assessed as reduction in cell viability at 1.8 to 30 uM after 24 hrs by trypan blue assay relative to control. The class given is cell-based. The conditions noted are these: human, hmc1, 24 h.
Series [9] concerns Rattus norvegicus. The series can be described thus: In vivo inhibition of P-gp in Sprague-Dawley rat assessed as increase in cyclosporine AUC at 112 uM/kg, po administered via gastric gavage coadministered with 2.5 mg/kg cyclosporine measured after 720 to 1440 mins by monoclonal fluorescence polarization assay relative to control. The class given is functional. Further details: scale not given: the % may be the effect or the level left.

For series [10], the system named is Rattus norvegicus. The series can be described thus: In vivo inhibition of CYP3A4 in Sprague-Dawley rat assessed as increase in cyclosporine Cmax at 112 uM/kg, po administered via gastric gavage coadministered with 2.5 mg/kg cyclosporine measured after 720 to 1440 mins by monoclonal fluorescence polarization assay relative to control. In kind it is ADME, organism-based. Further details: scale not given: the % may be the effect or the level left.

The subject of the next series is NCI-H460. Kind of series: Cytotoxicity against human H460 cells assessed as reduction in cell viability at 50 uM after 72 hrs by trypan blue staining based assay relative to control. The class given is functional.
Series [11] has as its system SH-SY5Y. Kind of series: Neuroprotective activity against 6-OHDA-induced cell death in human SH-SY5Y cells assessed as apoptotic cells at 5 ug/ml pretreated for 1 hr followed by 6-OHDA challenge measured after 24 hrs by propidium iodide/RNase staining based flow cytometry (reference value: 31.56 %). The class given is functional. Background: In flow cytometry, cells or beads pass a laser one at a time.

In series [12] the test system is Rattus norvegicus. The series can be described thus: In vivo inhibition of P-gp in Sprague-Dawley rat assessed as increase in nimodipine AUC at 2 mg/kg, po pretreated for 30 mins followed by nimodipine addition measured after 36 hrs by HPLC method relative to nimodipine alone. In kind it is functional.
For series [13], the system named is DU-145. Kind of series: Anti-tumor activity against human DU145 cells xenografted in SCID mouse assessed as tumor volume at 30 mg/kg, po administered once daily for 28 days measured every seven days during compound dosing (reference value: 314 +/- 54.8 mm3). In kind it is functional.
The test system of series [14] is Rattus norvegicus. Kind of series: Neuroprotective activity in 6-OHDA-induced lesioned Sprague-Dawley rat assessed as increase in TH-immunopositive neurons at 200 mg/kg, ig administered once daily for 15 days measured on day 42 post 6-OHDA lesion induction by immunohistochemical analysis relative to control. In kind it is functional.
Series [15] deals with SH-SY5Y. The series can be described thus: Neuroprotective activity against 6-OHDA-induced cell death in human SH-SY5Y cells assessed as apoptotic cells at 0.5 ug/ml pretreated for 1 hr followed by 6-OHDA challenge measured after 24 hrs by propidium iodide/RNase staining based flow cytometry (reference value: 31.56 %). In kind it is functional.
Series [16] deals with Rattus norvegicus. The series can be described thus: In vivo inhibition of CYP1A2 in Sprague-Dawley rat assessed as increase in unbound phenacetin level in plasma at 450 mg/kg, iv coadministered with phenacetin by UV-HPLC method relative to phenacetin alone. In kind it is ADME, organism-based.
Series [17] deals with Mus musculus. The series can be described thus: Anti-inflammatory activity in adjuvant-induced C57BL/6 mouse arthritis model assessed as reduction in ankle swelling by measuring splenic Th17 cell population expansion at 100 mg/kg, ip administered once daily for 1 week starting from 14 days post-immunization measured by flow cytometry relative to control. The class given is functional. Details: scale not given: the % may be the effect or the level left.

Series [18] concerns Rattus norvegicus. Kind of series: In vivo inhibition of P-gp in Sprague-Dawley rat assessed as increase in cyclosporine AUC at 112 uM/kg, po administered via gastric gavage coadministered with 2.5 mg/kg cyclosporine measured after 540 mins by monoclonal fluorescence polarization assay relative to control. In kind it is functional. Further details: scale not given: the % may be the effect or the level left.

The subject of series [19] is Rattus norvegicus. The description is as §1. In kind it is ADME, organism-based. The conditions noted are these: in vivo.
Series [20] deals with Rattus norvegicus. The series can be described thus: In vivo inhibition of CYP3A4 in Sprague-Dawley rat assessed as increase in cyclosporine Cmax at 112 uM/kg, po administered via gastric gavage coadministered with 2.5 mg/kg cyclosporine measured after 540 mins by monoclonal fluorescence polarization assay relative to control. The class given is ADME, organism-based. Further details: scale not given: the % may be the effect or the level left. The settings on record: 9 h.

Series [21] can be described thus: Solubility of the compound in water. In kind it is physicochemical. The settings on record: buffer.
For series [22], the system named is Mus musculus. Kind of series: Antiinflammatory activity in dextran sodium sulphate-induced C57BL/6 mouse colitis model assessed as disease activity index at 100 mg/kg, ig administered once daily pretreated for 3 days followed by DSS challenge and subsequent treatment for 7 days measured 24 hrs post last dose (reference value: 5.67 +/- 1.03). In kind it is functional.

In series [23] the test system is Rattus norvegicus. Kind of series: In vivo inhibition of P-gp in Sprague-Dawley rat assessed as increase in cyclosporine Cmax at 112 uM/kg, po administered via gastric gavage coadministered with 2.5 mg/kg cyclosporine measured after 540 mins by monoclonal fluorescence polarization assay relative to control. The class given is functional. Further details: scale not given: the % may be the effect or the level left.

The subject of series [24] is Mus musculus. Kind of series: Anti-inflammatory activity in proteolipid protein 139-151/complete freund's adjuvant-induced SJL/J mouse autoimmune encephalomyelitis model assessed as reduction in clinical score at 5 to 10 mg/kg, ip administered once daily pretreated for 1 day followed by immunization and subsequent treatment for 3 days measured up to 6 days. In kind it is functional.

For series [25], the system named is Rattus norvegicus. Kind of series: Anti-hyperplasia activity in carotid arterial balloon-injury-induced Sprague-Dawley rat neointimal hyperplasia model assessed as reduction in thickness of left carotid artery by measuring intima to media thickness ratio at 70 mg/kg administered once daily via gastric gavage from 3 days before balloon injury to 28 days after the injury measured post last dose by haematoxylin/eosin staining based assay relative to control. In kind it is functional. Further details: scale not given: the % may be the effect or the level left.

Series [26] relates to Rattus norvegicus. Kind of series: In vivo inhibition of CYP3A4 in Sprague-Dawley rat assessed as increase in cyclosporine AUC at 112 uM/kg, po administered via gastric gavage coadministered with 2.5 mg/kg cyclosporine measured after 540 mins by monoclonal fluorescence polarization assay relative to control. In kind it is ADME, organism-based. Details: scale not given: the % may be the effect or the level left. The settings on record: 9 h.

Values after ≈ are worked out from the molar mass of the structure shown.

Cytochrome P450 3A4, sequence (P08684 whole entry): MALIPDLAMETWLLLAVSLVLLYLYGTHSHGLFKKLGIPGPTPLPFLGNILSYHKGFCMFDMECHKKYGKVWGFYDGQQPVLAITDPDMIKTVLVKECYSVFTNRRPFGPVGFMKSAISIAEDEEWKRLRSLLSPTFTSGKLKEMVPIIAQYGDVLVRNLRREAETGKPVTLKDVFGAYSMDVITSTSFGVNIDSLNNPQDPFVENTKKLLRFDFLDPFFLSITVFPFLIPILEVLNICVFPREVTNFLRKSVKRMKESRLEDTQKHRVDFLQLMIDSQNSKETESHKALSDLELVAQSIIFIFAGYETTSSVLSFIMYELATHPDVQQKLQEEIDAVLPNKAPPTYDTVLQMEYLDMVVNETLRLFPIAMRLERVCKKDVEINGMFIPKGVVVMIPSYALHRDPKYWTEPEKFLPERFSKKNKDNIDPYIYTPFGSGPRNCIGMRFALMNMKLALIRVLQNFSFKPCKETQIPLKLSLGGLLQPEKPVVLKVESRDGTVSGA

Take `O=c1cc(-c2ccccc2)oc2cc(O)c(O)c(O)c12` [BAICALEIN]: the Activity in the series on DU-145 [1] was 144.5 mm3; in the series on Rattus norvegicus [3], 87.5%; in the series on Rattus norvegicus [4], 150.2%; in the series on DU-145 [8], 114.2 mm3; with HMC1, 93 to 95%; with Rattus norvegicus [9], 150.2%. For the same compound, the Activity came out at 87.5% with Rattus norvegicus [10]; 42% in the series with NCI-H460; 21.61% with SH-SY5Y [11]; 183 mm3 in the series on DU-145 [13]; 265.52% in the series with Rattus norvegicus [14]; 18.9% in the series on SH-SY5Y [15]. Further, the “fold change (FC)” value with Rattus norvegicus [2] came to 1.6; with Rattus norvegicus [12] it was 1.4. The compound further yielded a bioavailability in [5] of 0%. For the same compound, the time of peak concentration (Tmax) in series [6] was 0.167 h. The IC50 at Cytochrome P450 3A4 came out at 9.2 µM. The Papp in series [7] is 17 ×10⁻⁶ cm/s.
As to `O=C(O)[C@H]1O[C@@H](Oc2cc3oc(-c4ccccc4)cc(=O)c3c(O)c2O)[C@H](O)[C@@H](O)[C@@H]1O` [BAICALIN], the “fold change (FC)” value with Rattus norvegicus [16] is given as 2. Moreover, the Activity in the series with Mus musculus [17] was determined as 40%; in the series on Rattus norvegicus [18], 685.3%; in the series with Rattus norvegicus [20] it was 408.1%; with Rattus norvegicus [23] it was 408.1%; in the series on Mus musculus [24] it was 2.2; in the series with Rattus norvegicus [25], 55%. In addition, in the series with Rattus norvegicus [26], the Activity came out at 685.3%. In the series with Rattus norvegicus [19], this compound showed an F of 62%. In addition, the Tmax in series [6] is 6.6 h. The same compound had a solubility in series [21] of 0.052 mg/mL (≈ 116 µM). For the same compound, the Papp in [7] turned out to be 0.037 ×10⁻⁶ cm/s. The Activity_index in the series with Mus musculus [22] is reported as 3.03.

By bioavailability is commonly meant dose-corrected exposure relative to a reference, in per cent. Usually Tmax stands for the time at which the peak concentration occurs. As a reminder, the IC50 is the point on the concentration scale where inhibition reaches its midpoint. As a reminder, the Papp is the rate of passage across a membrane or cell layer, normalised by area and donor concentration. By solubility is commonly meant the concentration that dissolves in the medium under given conditions.
